Source: patent US12091425B2 (AMGEN INC., priority 2016, dated 2024)

How the values were obtained:
[1] = test system: OPM-2 human multiple myeloma cell line; assay: Cell Viability Assay (OPM-2 10 FBS); assay type: cell-based; conditions: OPM-2 cells, CellTiter-Glo
In short: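 ATP-based luminescence (CellTiter-Glo) measured after a 16 h compound treatment of OPM-2 cells seeded at 3000 cells/well in 10% FBS medium. IC50 values derived by 4-parameter logistic fitting of serial dilutions.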

[2] = target: T1, Mcl-1/Bim interaction, recombinant human Mcl-1 (171-327) (Homo sapiens, UniProt Q07820); assay: Cell free Mcl-1: Bim Affinity Assay (Mcl-1 HTRF); assay type: binding
T1 construct: made in house
T1 sequence (Q07820 171-327): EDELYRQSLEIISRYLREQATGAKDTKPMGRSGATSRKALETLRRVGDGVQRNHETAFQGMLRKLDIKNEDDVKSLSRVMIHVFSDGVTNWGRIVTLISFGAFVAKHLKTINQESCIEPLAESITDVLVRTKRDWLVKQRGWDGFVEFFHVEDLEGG
In short: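 TR-FRET competition assay with biotinylated human Bim peptide (residues 51-76); reaction plates incubated overnight before reading. IC50 values came from duplicate data fitted to a four-parameter sigmoidal competition curve.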

[3] = TR-FRET, 0.1 nM Mcl-1 (171-327), 0.05 nM biotin-Bim (51-76)
[4] = cell free Mcl-1:Bim TR-FRET, recombinant human Mcl-1 (171-327)
[5] = Homo sapiens, OPM-2, 16 h, 16 h
[6] = Homo sapiens, OPM-2, 16 h, 16 h incubation

| SMILES | IC50 [2, 3] [nM] | IC50 [2, 4] [nM] | IC50 [1, 5] [nM] | also measured |
| --- | --- | --- | --- | --- |
| O=C1NS(=O)(=O)[C@H](C2CC2)CC/C=C/[C@H](O)[C@@H]2CC[C@H]2CN2C[C@@]3(CCCc4cc(Cl)ccc43)COc3ccc1cc32 (single isomer, unassigned) [Example 149] | 0.77 | – | – | IC50 ([1]; 16 h): 1330 nM |
| O=C1NS(=O)(=O)C2CC2CC=CC(O)C2CCC2CN2CC3(CCCc4cc(Cl)ccc43)COc3ccc1cc32 (single isomer, unassigned) [Example 796] | – | 0.45 | – | IC50 ([1]; 16 h): 195 nM |
| CC[C@@H]1CC/C=C/[C@H](O)[C@@H]2CC[C@H]2CN2C[C@@]3(CCCc4cc(Cl)ccc43)COc3cc(F)c(cc32)C(=O)NS1(=O)=O [Example 655, (1S,3′R,6′R,7′S,8′E,12′R)-6-chloro-12′-ethyl-17′-fluoro-7′-hydroxy-3,4-dihydro-2H,15′H-spiro[naphthalene-1,22′-[20]oxa[13]thia[1,14]diazatetracyclo[14.7.2.0^3,6.0^19,24]pentacosa [8,16,18,24]tetraen]-15′-one 13′,13′-dioxide] | – | 0.884 | 947 | – |
| O=C1NS(=O)(=O)N(CC2CC2)CC/C=C/[C@H](O)[C@@H]2CC[C@H]2CN2C[C@@]3(CCCc4cc(Cl)ccc43)COc3ccc1cc32 [Example 20, (1S,3′R,6′R,7′S,8′E)-6-chloro-12′-(cyclopropylmethyl)-7′-hydroxy-3,4-dihydro-2H,15′H-spiro[naphthalene-1,22′-[20]oxa[13]thia[1,12,14]triazatetracyclo[14.7.2.0^3,6.0^19,24]pentacosa[8,16,18,24]tetraen]-15′-one 13,13′-dioxide] | 0.85 | – | 818 | – |
| C[C@@H]1[C@@H](C)/C=C/[C@H](O)[C@@H]2CC[C@H]2CN2C[C@@]3(CCCc4cc(Cl)ccc43)COc3ccc(cc32)C(=O)NS(=O)(=O)[C@H]1C (single isomer, unassigned) [Example 1043] | 6.09 | – | – | IC50 [1, 6]: 6740 nM |
| CO[C@H]1C/C=C/[C@H](O)[C@@H]2CC[C@H]2CN2C[C@@]3(CCCc4cc(Cl)ccc43)COc3ccc(cc32)C(=O)NS(=O)(=O)[C@@H]1CC(C)C (single isomer, unassigned) [Example 643] | – | 0.337 | 151 | – |
| CCN1CC/C=C/[C@H](OCc2cscn2)[C@@H]2CC[C@H]2CN2C[C@@]3(CCCc4cc(Cl)ccc43)COc3ccc(cc32)C(=O)NS1(=O)=O [Example 88, (1S,3′R,6′R,7′S,8′E)-6-chloro-12′-ethyl-7′-(1,3-thiazol-4-ylmethoxy)-3,4-dihydro-2H,15′H-spiro[naphthalene-1,22′-[20]oxa[13]thia[1,12,14]triazatetracyclo[14.7.2.0^3,6.0^19,24]pentacosa[8,16,18,24]tetraen]-15′-one 13′,13′-dioxide] | 1.71 | – | 1040 | – |
| COCC[C@@H]1C[C@@H](C)/C=C/[C@H](OC)[C@@H]2CC[C@H]2CN2C[C@@]3(CCCc4cc(Cl)ccc43)COc3ccc(cc32)C(=O)NS1(=O)=O (single isomer, unassigned) [Example 484] | – | 0.331 | – | IC50 ([1]; 16 h): 412 nM |
| C[C@H]1/C=C/[C@H](O)[C@@H]2CC[C@H]2CN2C[C@@]3(CCCc4cc(Cl)ccc43)COc3ccc(cc32)C(=O)NS(=O)(=O)[C@@H]2COC[C@H]21 (single isomer, unassigned) [Example 1058] | 0.249 | – | – | IC50 ([1]; 16 h incubation): 456 nM |

Further lines, with some results ahead:

| IC50 [2, 3] [nM] | IC50 [2, 4] [nM] | IC50 [1, 5] [nM] | SMILES | also measured |
| --- | --- | --- | --- | --- |
| – | 0.188 | 235 | C[C@@H]1[C@@H](C)C/C=C/[C@H](OCCCO)[C@@H]2CC[C@H]2CN2C[C@@]3(CCCc4cc(Cl)ccc43)COc3ccc(cc32)C(=O)NS1(=O)=O [Example 509, (1S,3′R,6′R,7′S,8′E,11′S,12′R)-6-chloro-7′-(3-hydroxypropoxy)-11′,12′-dimethyl-3,4-dihydro-2H,15′H-spiro[naphthalene-1,22′-[20]oxa[13]thia[1,14]diazatetracyclo[14.7.2.0^3,6.0^19,24]pentacosa [8,16,18,24]tetraen]-15′-one 13′,13′-dioxide] | – |
| – | 0.891 | 192 | CCOC(=O)NCCO[C@H]1/C=C/C[C@H](C)[C@@H](C)S(=O)(=O)NC(=O)c2ccc3c(c2)N(C[C@@H]2CC[C@H]21)C[C@@]1(CCCc2cc(Cl)ccc21)CO3 [Example 736, ethyl (2-(((1S,3′R,6′R,7′S,8′E,11′S,12′R)-6-chloro-11′,12′-dimethyl-13′, 13′-dioxido-15′-oxo-3,4-dihydro-2H-spiro[naphthalene-1,22′-[20]oxa[13]thia[1,14]diazatetracyclo[14.7.2.0^3,6.0^19,24]pentacosa[8,16,18,24]tetraen]-7′-yl)oxy)ethyl)carbamate] | – |
| 1.2 | – | 1140 | C[C@@H]1[C@@H](C)C/C=C/[C@H](OCC(=O)N2CC(O)(C(F)(F)F)C2)[C@@H]2CC[C@H]2CN2C[C@@]3(CCCc4cc(Cl)ccc43)COc3ccc(cc32)C(=O)NS1(=O)=O [Example 306, (1S,3′R,6′R,7′S,8′E,11′S,12′R)-6-chloro-7′-(2-(3-hydroxy-3-(trifluoromethyl)-1-azetidinyl)-2-oxoethoxy)-11′,12′-dimethyl-3,4-dihydro-2H,15′H-spiro[naphthalene-1,22′-[20]oxa[13]thia[1,14]diazatetracyclo[14.7.2.0^3,6.0^19,24]pentacosa [8,16,18,24]tetraen]-15′-one 13′,13′-dioxide] | – |
| – | 0.365 | 113 | C[C@@H]1[C@@H](C)C/C=C/[C@H](OCCN2CCS(=O)(=O)CC2)[C@@H]2CC[C@H]2CN2C[C@@]3(CCCc4cc(Cl)ccc43)COc3ccc(cc32)C(=O)NS1(=O)=O [Example 524, (1S,3′R,6′R,7′S,8′E,11′S,12′R)-6-chloro-7′-(2-(1,1-dioxido-4-thiomorpholinyl)ethoxy)-11′,12′-dimethyl-3,4-dihydro-2H,15′H-spiro[naphthalene-1,22′-[20]oxa[13]thia[1,14]diazatetracyclo[14.7.2.0^3,6.0^19,24]pentacosa [8,16,18,24]tetraen]-15′-one 13′,13′-dioxide] | – |
| 0.654 | – | 478 | C[C@@H]1[C@@H](C)C/C=C/[C@H](OCC(=O)NCC(F)(F)F)[C@@H]2CC[C@H]2CN2C[C@@]3(CCCc4cc(Cl)ccc43)COc3ccc(cc32)C(=O)NS1(=O)=O [Example 297, 2-(((1S,3′R,6′R,7′S,8′E,11′S,12′R)-6-chloro-11′,12′-dimethyl-13′,13′-dioxido-15′-oxo-3,4-dihydro-2H-spiro[naphthalene-1,22′-[20]oxa[13]thia[1,14]diazatetracyclo[14.7.2.0^3,6.0^19,24]pentacosa [8,16,18,24]tetraen]-7′-yl)oxy)-N-(2,2,2-trifluoroethyl)acetamide] | – |
| 0.232 | – | – | CC[C@@H]1CC/C=C/[C@H](OCCC(=O)O)[C@@H]2CC[C@H]2CN2C[C@@]3(CCCc4cc(Cl)ccc43)COc3ccc(cc32)C(=O)NS1(=O)=O [Example 1008, 3-(((1S,3′R,6′R,7′S,8′E,12′R)-6-chloro-12′-ethyl-13′,13′-dioxido-15′-oxo-3,4-dihydro-2H-spiro[naphthalene-1,22′-[20]oxa[13]thia[1,14]diazatetracyclo[14.7.2.0^3,6.0^19,24]pentacosa [8,16,18,24]tetraen]-7′-yl)oxy)propanoic Acid] | IC50 [1, 6]: 5590 nM |
